From paper PMC5218480 (PLoS ONE, 2017)

Test system: MV-4-11 cells
Assay: Gene expression microarray analysis (Affymetrix PrimeView) and GSEA
Assay type: cell-based, human
Design: RFU PODN (11730768_x_at) / Fold change /veh PODN (11730768_x_at) / RFU LINC00158 (11744669_a_at) / Fold change /veh LINC00158 (11744669_a_at) / RFU DUSP10 (11751237_a_at) / Fold change /veh DUSP10 (11751237_a_at) / RFU ID3 (11757404_x_at) / Fold change /veh ID3 (11757404_x_at) / RFU PLEKHG5 (11737974_s_at) / Fold change /veh PLEKHG5 (11737974_s_at) / RFU LRRC4B (11730491_at) / Fold change /veh LRRC4B (11730491_at) / RFU GIMAP4 (11747438_a_at) / Fold change /veh GIMAP4 (11747438_a_at) / RFU KRT8 (11758183_x_at) / Fold change /veh KRT8 (11758183_x_at) / RFU CNN1 (11734310_a_at) / Fold change /veh CNN1 (11734310_a_at) / RFU VPS37D (11726825_at) / Fold change /veh VPS37D (11726825_at) / RFU C10orf10 (11716522_x_at) / Fold change /veh C10orf10 (11716522_x_at) / RFU KIR2DL2 /// KIR2DL4 /// KIR2DL5A /// KIR2DL5B /// KIR2DS1 /// KIR2DS2 /// KIR2DS3 /// KIR2DS4 /// KIR3DL3 /// KIR3DL3 /// KIR3DS1 (11738374_at) / Fold change /veh KIR2DL2 /// KIR2DL4 /// KIR2DL5A /// KIR2DL5B /// KIR2DS1 /// KIR2DS2 /// KIR2DS3 /// KIR2DS4 /// KIR3DL3 /// KIR3DL3 /// KIR3DS1 (11738374_at) / RFU C1QL1 (11718748_at) / Fold change /veh C1QL1 (11718748_at) / RFU TMPRSS4 (11747572_a_at) / Fold change /veh TMPRSS4 (11747572_a_at) / RFU HAMP (11756126_x_at) / Fold change /veh HAMP (11756126_x_at) / RFU RNFT2 (11725882_a_at) / Fold change /veh RNFT2 (11725882_a_at) / RFU NR4A2 (11747474_a_at) / Fold change /veh NR4A2 (11747474_a_at) / RFU ABCC12 (11746883_a_at) / Fold change /veh ABCC12 (11746883_a_at) / RFU TMEM136 (11760407_x_at) / Fold change /veh TMEM136 (11760407_x_at) / RFU CLDN22 /// WWC2 (11732394_at) / Fold change /veh CLDN22 /// WWC2 (11732394_at) / RFU HLA-DPB1 (11760878_x_at) / Fold change /veh HLA-DPB1 (11760878_x_at) / RFU SPINT1 (11716480_a_at) / Fold change /veh SPINT1 (11716480_a_at) / RFU GAP43 (11754022_s_at) / Fold change /veh GAP43 (11754022_s_at) / RFU A4GNT (11735810_at) / Fold change /veh A4GNT (11735810_at) / RFU PRB3 (11715151_x_at) / Fold change /veh PRB3 (11715151_x_at) / RFU TUBB4B (11761932_at) / Fold change /veh TUBB4B (11761932_at) / RFU CAPN14 (11732068_a_at) / Fold change /veh CAPN14 (11732068_a_at) / RFU TMCC2 (11721928_a_at) / Fold change /veh TMCC2 (11721928_a_at) / RFU IRGQ (11745062_a_at) / Fold change /veh IRGQ (11745062_a_at) / RFU FAM174B (11720279_a_at) / Fold change /veh FAM174B (11720279_a_at) / RFU TMPRSS4 (11748680_a_at) / Fold change /veh TMPRSS4 (11748680_a_at) / RFU FAM212B (11763350_a_at) / Fold change /veh FAM212B (11763350_a_at) / RFU PLEKHG5 (11743358_a_at) / Fold change /veh PLEKHG5 (11743358_a_at) / RFU ZSCAN30 (11745921_a_at) / Fold change /veh ZSCAN30 (11745921_a_at) / RFU CMKLR1 (11741424_a_at) / Fold change /veh CMKLR1 (11741424_a_at) / RFU LOC101060620 /// MAPK8IP1 (11723275_at) / Fold change /veh LOC101060620 /// MAPK8IP1 (11723275_at) / RFU SPTSSB (11747773_x_at) / Fold change /veh SPTSSB (11747773_x_at) / RFU PRSS12 (11739890_at) / Fold change /veh PRSS12 (11739890_at) / RFU BIN1 (11741810_x_at) / Fold change /veh BIN1 (11741810_x_at) / RFU WNT11 (11732464_a_at) / Fold change /veh WNT11 (11732464_a_at) / RFU C10orf10 (11716521_a_at) / Fold change /veh C10orf10 (11716521_a_at) / RFU C5orf56 (11738089_at) / Fold change /veh C5orf56 (11738089_at) / RFU CYB561 (11721691_x_at) / Fold change /veh CYB561 (11721691_x_at) / RFU ANKRD19P (11752326_a_at) / Fold change /veh ANKRD19P (11752326_a_at) / RFU OR2T12 /// OR2T33 /// OR2T8 (11738714_s_at) / Fold change /veh OR2T12 /// OR2T33 /// OR2T8 (11738714_s_at) / RFU VCAN (11748164_a_at) / Fold change /veh VCAN (11748164_a_at) / RFU JSRP1 (11732532_at) / Fold change /veh JSRP1 (11732532_at) / RFU KRTAP10-11 (11738290_x_at) / Fold change /veh KRTAP10-11 (11738290_x_at) / RFU MYO3A (11730013_a_at) / Fold change /veh MYO3A (11730013_a_at) / RFU EBF3 (11725865_a_at) / Fold change /veh EBF3 (11725865_a_at) / RFU CAMK2N1 (11719241_x_at) / Fold change /veh CAMK2N1 (11719241_x_at) / RFU C5orf56 (11738088_a_at) / Fold change /veh C5orf56 (11738088_a_at) / RFU OLFML3 (11715873_a_at) / Fold change /veh OLFML3 (11715873_a_at) / RFU LOC100653217 /// NTM (11731650_a_at) / Fold change /veh LOC100653217 /// NTM (11731650_a_at) / RFU MAPK11 (11762145_a_at) / Fold change /veh MAPK11 (11762145_a_at) / RFU FIZ1 (11724087_x_at) / Fold change /veh FIZ1 (11724087_x_at) / RFU OASL (11726364_x_at) / Fold change /veh OASL (11726364_x_at) / RFU SOX15 (11748057_x_at) / Fold change /veh SOX15 (11748057_x_at) / RFU CD79A (11719716_a_at) / Fold change /veh CD79A (11719716_a_at) / RFU HIST1H1D (11736915_at) / Fold change /veh HIST1H1D (11736915_at) / RFU CASKIN2 (11723855_a_at) / Fold change /veh CASKIN2 (11723855_a_at) / RFU LOC730098 (11760151_x_at) / Fold change /veh LOC730098 (11760151_x_at) / RFU OR4N2 (11742367_at) / Fold change /veh OR4N2 (11742367_at) / RFU PRRT2 (11749266_a_at) / Fold change /veh PRRT2 (11749266_a_at) / RFU SNX32 (11753110_a_at) / Fold change /veh SNX32 (11753110_a_at) / RFU CDHR5 (11726645_a_at) / Fold change /veh CDHR5 (11726645_a_at) / RFU RCAN1 (11760418_a_at) / Fold change /veh RCAN1 (11760418_a_at) / RFU FAM167A (11723789_a_at) / Fold change /veh FAM167A (11723789_a_at) / RFU FAM26E (11764081_at) / Fold change /veh FAM26E (11764081_at) / RFU ISYNA1 (11749810_s_at) / Fold change /veh ISYNA1 (11749810_s_at) / RFU ACY1 (11761880_at) / Fold change /veh ACY1 (11761880_at) / RFU 11764098_at / Fold change /veh 11764098_at / RFU SAMD14 (11745864_x_at) / Fold change /veh SAMD14 (11745864_x_at) / RFU NPB (11741838_a_at) / Fold change /veh NPB (11741838_a_at) / RFU TMPRSS6 (11731388_a_at) / Fold change /veh TMPRSS6 (11731388_a_at) / RFU KRTAP10-2 (11738614_at) / Fold change /veh KRTAP10-2 (11738614_at) / RFU ARHGAP8 /// PRR5-ARHGAP8 (11727945_x_at) / Fold change /veh ARHGAP8 /// PRR5-ARHGAP8 (11727945_x_at) / RFU KRTAP5-7 /// NADSYN1 (11734609_at) / Fold change /veh KRTAP5-7 /// NADSYN1 (11734609_at) / RFU RASL12 (11751679_a_at) / Fold change /veh RASL12 (11751679_a_at) / RFU CDKN2B (11736163_a_at) / Fold change /veh CDKN2B (11736163_a_at) / RFU PRF1 (11729649_at) / Fold change /veh PRF1 (11729649_at) / RFU, ZNF638 /// ZNF638-IT1 / Fold change vs veh, ZNF638 /// ZNF638-IT1 / RFU, PANK3 / Fold change vs veh, PANK3 / RFU, SH3YL1 / Fold change vs veh, SH3YL1 / RFU, ZEB2 / Fold change vs veh, ZEB2 / RFU, NRIP1 / Fold change vs veh, NRIP1 / RFU, PTTG1IP / Fold change vs veh, PTTG1IP / RFU, CAPN2 / Fold change vs veh, CAPN2 / RFU, MED14 / Fold change vs veh, MED14 / RFU, SNORA58 / Fold change vs veh, SNORA58 / RFU, C1orf63 / Fold change vs veh, C1orf63 / RFU, LRRFIP1 / Fold change vs veh, LRRFIP1 / RFU, NDUFAF7 / Fold change vs veh, NDUFAF7 / RFU, SLC12A2 / Fold change vs veh, SLC12A2 / RFU, IBTK / Fold change vs veh, IBTK / RFU, ESF1 / Fold change vs veh, ESF1 / Fold change vs veh, TMEM50B / RFU, TAOK1 / Fold change vs veh, TAOK1 / RFU, ACBD3 / Fold change vs veh, ACBD3 / RFU, TMA16 / Fold change vs veh, TMA16 / RFU, RWDD3 / Fold change vs veh, RWDD3 / RFU, BCAT1 / Fold change vs veh, BCAT1 / RFU, EDEM3 / Fold change vs veh, EDEM3 / RFU, TMEM33 / Fold change vs veh, TMEM33 / RFU, WDR75 / Fold change vs veh, WDR75 / RFU, AHCTF1 / Fold change vs veh, AHCTF1 / RFU, TFRC / Fold change vs veh, TFRC / RFU, ZDHHC17 / Fold change vs veh, ZDHHC17 / RFU, NOM1 / Fold change vs veh, NOM1 / RFU, ARL8B / Fold change vs veh, ARL8B / RFU, ZBTB11 / Fold change vs veh, ZBTB11 / RFU, TAMM41 / Fold change vs veh, TAMM41 / RFU, KIAA1704 /// LOC100996395 / Fold change vs veh, KIAA1704 /// LOC100996395 / RFU, ING1 / Fold change vs veh, ING1 / RFU, TRMT61B / Fold change vs veh, TRMT61B / RFU, FUBP3 / Fold change vs veh, FUBP3 / RFU, TP53 / Fold change vs veh, TP53 / RFU, TNKS2 / Fold change vs veh, TNKS2 / RFU, ZFP14 / Fold change vs veh, ZFP14 / RFU, ACTR2 / Fold change vs veh, ACTR2 / RFU, PPP3R1 / Fold change vs veh, PPP3R1 / RFU, PIK3R1 / Fold change vs veh, PIK3R1 / RFU, HNRNPA1 / Fold change vs veh, HNRNPA1 / RFU, RNF170 / Fold change vs veh, RNF170 / RFU, ZNF28 / Fold change vs veh, ZNF28 / RFU, RNGTT / Fold change vs veh, RNGTT / RFU, OGT / Fold change vs veh, OGT / RFU, BRD1 / Fold change vs veh, BRD1 / RFU, MARS / Fold change vs veh, MARS / RFU, ZNF655 / Fold change vs veh, ZNF655 / RFU, FAHD1 / Fold change vs veh, FAHD1 / RFU, BDP1 / Fold change vs veh, BDP1 / RFU, LRRCC1 / Fold change vs veh, LRRCC1 / RFU, ARID1A / Fold change vs veh, ARID1A / RFU, ZNF146 / Fold change vs veh, ZNF146 / RFU, ZNF330 / Fold change vs veh, ZNF330 / RFU, GPN3 / Fold change vs veh, GPN3 / RFU, C9orf123 / Fold change vs veh, C9orf123 / RFU, N4BP2L2 / Fold change vs veh, N4BP2L2 / RFU, ARFIP1 / Fold change vs veh, ARFIP1 / RFU, FAM179B / Fold change vs veh, FAM179B / RFU, BCL10 / Fold change vs veh, BCL10 / RFU, UHRF1BP1L / Fold change vs veh, UHRF1BP1L / RFU, BET1 / Fold change vs veh, BET1 / RFU, CNOT2 / Fold change vs veh, CNOT2 / RFU, ZNF268 / Fold change vs veh, ZNF268 / Fold change vs veh, ZNF507 / RFU, DGCR2 / Fold change vs veh, DGCR2 / RFU, WDSUB1 / Fold change vs veh, WDSUB1 / Fold change vs veh, HSP90B1 /// MIR3652 / RFU, ADSS / Fold change vs veh, ADSS / RFU, GK / Fold change vs veh, GK / RFU, ZNF148 / Fold change vs veh, ZNF148 / RFU, TAF9 / Fold change vs veh, TAF9 / RFU, SLC1A5 / Fold change vs veh, SLC1A5 / RFU, SLMO2 / Fold change vs veh, SLMO2 / RFU, ABCC4 / Fold change vs veh, ABCC4 / RFU, LOC101060439 /// RAP1B / Fold change vs veh, LOC101060439 /// RAP1B / RFU, RFX7 / Fold change vs veh, RFX7 / RFU, GTPBP10 / Fold change vs veh, GTPBP10 / RFU, CNEP1R1 / Fold change vs veh, CNEP1R1 / RFU, BIVM-ERCC5 /// ERCC5 / Fold change vs veh, BIVM-ERCC5 /// ERCC5 / RFU, ILF3 / Fold change vs veh, ILF3 / RFU 11762660_at / Fold change /veh 11762660_at / RFU VCAN (11757783_s_at) / Fold change /veh VCAN (11757783_s_at) / RFU DDX43 (11728927_at) / Fold change /veh DDX43 (11728927_at) / RFU KRT8 (11758188_x_at) / Fold change /veh KRT8 (11758188_x_at) / RFU NKD1 (11759106_at) / Fold change /veh NKD1 (11759106_at) / RFU SRD5A1 (11742802_a_at) / Fold change /veh SRD5A1 (11742802_a_at) / RFU TPSAB1 /// TPSB2 (11721975_s_at) / Fold change /veh TPSAB1 /// TPSB2 (11721975_s_at) / RFU GSTM3 (11746129_a_at) / Fold change /veh GSTM3 (11746129_a_at) / RFU IL23R (11737362_x_at) / Fold change /veh IL23R (11737362_x_at) / RFU TMEM51 (11727254_a_at) / Fold change /veh TMEM51 (11727254_a_at) / RFU PIWIL2 (11732686_x_at) / Fold change /veh PIWIL2 (11732686_x_at) / RFU ORM1 (11744905_x_at) / Fold change /veh ORM1 (11744905_x_at) / RFU CCDC152 (11743942_at) / Fold change /veh CCDC152 (11743942_at) / RFU ECM1 (11717891_a_at) / Fold change /veh ECM1 (11717891_a_at) / RFU IL23R (11748794_a_at) / Fold change /veh IL23R (11748794_a_at) / RFU TNFAIP8L3 (11732012_x_at) / Fold change /veh TNFAIP8L3 (11732012_x_at) / RFU MBOAT4 (11741988_at) / Fold change /veh MBOAT4 (11741988_at) / RFU 11764193_at / Fold change /veh 11764193_at / RFU TMEM53 (11763286_at) / Fold change /veh TMEM53 (11763286_at) / RFU MAGEB2 (11727129_at) / Fold change /veh MAGEB2 (11727129_at) / RFU TMEM200A (11744735_a_at) / Fold change /veh TMEM200A (11744735_a_at) / RFU CCDC152 (11751479_a_at) / Fold change /veh CCDC152 (11751479_a_at) / RFU FAM211A (11726209_a_at) / Fold change /veh FAM211A (11726209_a_at) / RFU RGS16 (11746705_a_at) / Fold change /veh RGS16 (11746705_a_at) / RFU VCAN (11755009_s_at) / Fold change /veh VCAN (11755009_s_at) / RFU RHOB (11743442_s_at) / Fold change /veh RHOB (11743442_s_at) / RFU RGS16 (11720943_a_at) / Fold change /veh RGS16 (11720943_a_at) / RFU RGS16 (11720944_at) / Fold change /veh RGS16 (11720944_at) / RFU, VPS4B / Fold change vs veh, VPS4B / RFU, CREB1 / Fold change vs veh, CREB1 / RFU, DNAJC13 / Fold change vs veh, DNAJC13 / RFU, GNAQ / Fold change vs veh, GNAQ / RFU, CDK5R1 / Fold change vs veh, CDK5R1 / RFU, ZRANB3 / Fold change vs veh, ZRANB3 / RFU, CUL4A / Fold change vs veh, CUL4A / RFU, CCNY / Fold change vs veh, CCNY / RFU, UFL1 / Fold change vs veh, UFL1 / RFU, COG3 / Fold change vs veh, COG3 / RFU, DIAPH2 / Fold change vs veh, DIAPH2 / RFU, SKA2 / Fold change vs veh, SKA2 / RFU, AFF3 / Fold change vs veh, AFF3 / RFU, LMF1 / Fold change vs veh, LMF1 / RFU, IPO11 / Fold change vs veh, IPO11 / RFU, DFFB / Fold change vs veh, DFFB / RFU, FOXP1 / Fold change vs veh, FOXP1 / RFU, CARD8 / Fold change vs veh, CARD8 / RFU, STRN3 / Fold change vs veh, STRN3 / RFU, ADK / Fold change vs veh, ADK / RFU, RASSF2 / Fold change vs veh, RASSF2 / RFU, WIPF1 / Fold change vs veh, WIPF1 / RFU, LARP1B / Fold change vs veh, LARP1B / RFU, RASA1 / Fold change vs veh, RASA1 / RFU, RB1 / Fold change vs veh, RB1 / RFU, PPFIA1 / Fold change vs veh, PPFIA1 / RFU, MAT2A / Fold change vs veh, MAT2A / RFU, CCT5 / Fold change vs veh, CCT5 / RFU, WDR92 / Fold change vs veh, WDR92 / RFU, CUX1 / Fold change vs veh, CUX1 / RFU, TTC7A / Fold change vs veh, TTC7A / RFU, TMEM135 / Fold change vs veh, TMEM135 / RFU, DEPTOR / Fold change vs veh, DEPTOR / RFU, CPM / Fold change vs veh, CPM / RFU, DNAJB6 / Fold change vs veh, DNAJB6 / RFU, CACNA2D3 / Fold change vs veh, CACNA2D3 / RFU, DTX4 / Fold change vs veh, DTX4 / RFU, TFCP2 / Fold change vs veh, TFCP2 / RFU, GMCL1 /// GMCL1P1 / Fold change vs veh, GMCL1 /// GMCL1P1 / RFU, AEBP2 / Fold change vs veh, AEBP2 / RFU, SNHG1 /// SNORD22 /// SNORD25 /// SNORD26 /// SNORD27 /// SNORD28 /// SNORD29 /// SNORD31 / Fold change vs veh, SNHG1 /// SNORD22 /// SNORD25 /// SNORD26 /// SNORD27 /// SNORD28 /// SNORD29 /// SNORD31 / Fold change (Aza/veh), C12orf56 (ProbeSet 11735607_a_at) / Fold change (ACY-1035/veh), C12orf56 (ProbeSet 11735607_a_at) / Fold change (Aza/veh), FGFR1OP (ProbeSet 11751329_s_at) / Fold change (ACY-1035/veh), FGFR1OP (ProbeSet 11751329_s_at) / Fold change (Aza/veh), VPS36 (ProbeSet 11739960_a_at) / Fold change (ACY-1035/veh), VPS36 (ProbeSet 11739960_a_at) / RFU SYPL1 (11715823_x_at) / Fold change /veh SYPL1 (11715823_x_at) / RFU IGFBP7 (11715501_s_at) / Fold change /veh IGFBP7 (11715501_s_at) / RFU REEP3 (11722064_at) / Fold change /veh REEP3 (11722064_at) / RFU IGLL1 (11728026_x_at) / Fold change /veh IGLL1 (11728026_x_at): dose or concentration left out as unconfirmed
Conditions: ProbeSet 11723930_at; LIST D

Nc1ncn([C@@H]2O[C@H](CO)[C@@H](O)[C@H]2O)c(=O)n1 [azacitidine]
RFU, CCT5: 106.24 RFU
